Data set [1] can be described thus: Absorption maximum of the dye. It counts as physicochemical. The text has this: (§1) Examples of the compounds according to the invention are listed in Tables 2-6, where the structures as well as the absorption and fluorescence maxima are indicated. The spectra of selected compounds are shown FIGS. 5-18.
Data set [2] in a line: Fluorescence maximum of the dye. The class given is physicochemical.
Text: as §1

Marks after values point to notes of the source that are not given here.

For `CC1(C)c2cc3c(cc2N=c2cc4c(cc21)=[N+](CCCC(=O)O)C(C)(C)C=C4CS(=O)(=O)O)C(CS(=O)(=O)O)=CC(C)(C)N3Cc1ccc(S(=O)(=O)O)cc1S(=O)(=O)O` [Compound 104], the λabs in data set [1] (solvent PBS pH 7.4) is reported as 758^b nm. Besides, the λfl in data set [2] (solvent PBS pH 7.4) was 778^b nm.
As for `CN(CCCC(=O)O)C(=O)c1ccccc1C1=c2cc3c(cc2[Si](C)(C)c2cc4c(cc21)C(CS(=O)(=O)O)CC(C)(C)N4Cc1ccc(S(=O)(=O)O)cc1S(=O)(=O)O)=[N+](Cc1ccc(S(=O)(=O)O)cc1S(=O)(=O)O)C(C)(C)CC3CS(=O)(=O)O` (stereo not shown) [Compound 73], the λabs in data set [1] (solvent PBS pH 7.4) was 686^b nm. Also, the λfl in data set [2] (solvent PBS pH 7.4) is given as 708^b nm.
For the compound `CC1(C)CC(CS(=O)(=O)O)c2cc3c(cc2=[N+]1CCCC(=O)O)Oc1cc(N(Cc2ccc(S(=O)(=O)O)cc2S(=O)(=O)O)Cc2ccc(S(=O)(=O)O)cc2S(=O)(=O)O)ccc1N=3` (stereo not shown) [Compound 97], the λabs in data set [1] (solvent PBS pH 7.4) is listed as 649^b nm. For the same compound, the λfl in data set [2] (solvent PBS pH 7.4) is 667^b nm.
With `CC1(C)CC(CS(=O)(=O)O)c2cc3c(cc2N1Cc1ccc(S(=O)(=O)O)cc1S(=O)(=O)O)[Si](C)(C)c1cc2c(cc1=C3c1cc(C(=O)O)ccc1C(=O)O)C(CS(=O)(=O)O)CC(C)(C)[N+]=2Cc1ccc(S(=O)(=O)O)cc1S(=O)(=O)O` (stereo not shown) [Compound 74], the λabs in data set [1] (solvent PBS pH 7.4) is listed as 675^b nm. Besides, the λfl in data set [2] (solvent PBS pH 7.4) is given as 698^b nm.
`CN(Cc1ccc(S(=O)(=O)O)cc1S(=O)(=O)O)c1ccc2c(c1)C(C)(C)C1=C/C(=[N+](/C)Cc3ccc(S(=O)(=O)O)cc3S(=O)(=O)O)C=CC1=C2c1c(F)c(F)c(SCC(=O)O)c(F)c1F` [Compound 47]: the λabs in data set [1] (solvent PBS pH 7.4) is reported as 645^b nm. The λfl in data set [2] (solvent PBS pH 7.4) is 666^b nm.
`CN(C)c1ccc2c(c1)C(C)(C)c1cc3c(cc1=C2c1c(F)c(F)c(SCC(=O)O)c(F)c1F)C(CS(=O)(=O)O)CC(C)(C)[N+]=3Cc1ccc(S(=O)(=O)O)cc1S(=O)(=O)O` (stereo not shown) [Compound 39]: the λabs in data set [1] (solvent PBS pH 7.4) is reported as 673^b nm. For the same compound, the λfl in data set [2] (solvent PBS pH 7.4) was 693^b nm.
Take `CC1(C)C=C(CS(=O)(=O)O)c2cc3c(cc2N1CCCC(=O)O)[Si](C)(C)c1cc2c(cc1=C3NCC(S(=O)(=O)O)S(=O)(=O)O)C(CS(=O)(=O)O)=CC(C)(C)[N+]=2CCS(=O)(=O)O` [Compound 93]: in data set [1] (solvent PBS pH 7.4), the λabs was 516^b nm. Further, the λfl in data set [2] (solvent PBS pH 7.4) was 695^b nm.
In the case of `CCN(Cc1ccc(S(=O)(=O)O)cc1S(=O)(=O)O)c1ccc2c(-c3ccccc3C(=O)O)c3cc/c(=[N+](\CC)Cc4ccc(S(=O)(=O)O)cc4S(=O)(=O)O)cc-3oc2c1` [Compound 3], the λabs in data set [1] (solvent water/acetonitrile 1:1) is on record as 550^c nm. In data set [2] (solvent PBS pH 7.4), the λfl is given as 583^b nm.
As for `Cc1cc(=O)[nH]c2cc(NCS(=O)(=O)O)ccc12` [Compound 105], the λabs was found to be 349 nm in data set [1] (solvent PBS pH 7.4) and 355 nm in data set [1] (solvent ethanol). In addition, the values for the λfl in data set [2] (solvent PBS pH 7.4) and in data set [2] (solvent ethanol) were 413 nm and 406 nm, respectively.
Consider `Cc1cc(=O)n(CC(=O)O)c2cc(NCS(=O)(=O)O)c(S(=O)(=O)O)cc12` [Compound 108], for which the λabs in data set [1] (solvent PBS pH 7.4) is given as 348^b nm. The λfl in data set [2] (solvent PBS pH 7.4) was 411^b nm.

The record behind these values is patent publication US11180657B2, “Polysulfonated fluorescence dyes” (ATTO-TEC GmbH, priority 2017, dated 2021).
